The values below come from patent US20250326769A1, “HETEROAROMATIC MACROCYCLIC ETHER CHEMOTHERAPEUTIC AGENTS” (Nuvalent, Inc., priority 2022, published 2025).

Common to all, as to assay type: cell-based
For assay [1], the target named is Ba/F3 EML4-ALK v1 I1171N (Homo sapiens (Human), UniProt Q9HC35+Q9UM73, I1171N). The assay is described as follows: Ba/F3 cell proliferation assay, EML4-ALK v1 I1171N. Particulars: for IC50: Ba/F3 stable cells, 72 hours, CellTiter-Glo; for ETV6-TRKB / EML4-ALK v1 I1171N: TRKB selectivity, ratio of Ba/F3 IC50 values. The text has this: (§1) Genes encoding EML4-ALK v1 (variant 1), EML4-ALK v1 G1202R, EML4-ALK v1 I1171IN, EML4-ALK v1 D1203N, EML4-ALK v1 I1171N/D1203N, and ETV6-TRKB were synthesized at GeneRay, cloned into the retroviral construct pMSCV-puro (Biovector), and packaged into retroviral particles. The virus was used to infect Ba/F3 cells (RIKEN) at multiplicity of infection=1 for 1 day. Infected cells were rescued in media (RPMI-1640 with 10% fetal bovine serum and 1% streptomycin and penicillin) supplemented with mouse IL-3 (10 ng/mL) for 2 days, and stable cell lines were selected by IL-3 withdrawal and puromycin (0.8 μg/mL) for 7 days. Monoclones were selected by single-cell dilution in IL-3-free medium containing puromycin (0.8 μg/mL). Transformation of desired genes was confirmed by Sanger sequencing and western blot using the following antibodies: ALK (CST #3633) and pan-TRK (Abcam #76291).
(§2) Stable cells were plated in a 384-well plate. Test compounds were then added in a 3-fold dilution series and incubated for 72 hours. CellTiter-Glo reagent (Promega) was added. Luminescence was measured on a plate reader. Half-maximal inhibitory concentration (ICso) was calculated from percent inhibition and inhibitor concentration using four-parameter logistic regression. Compound potency can be interpreted by binning IC50 values: bin A for high potency, 0.1 nM IC50<50 nM; bin B for medium potency, 50 nM<IC50<500 nM; and bin C for low potency, IC50>500 nM. […] Exemplary data is given in Table 4 (nd is not determined).
(§3) Ba/F3 proliferation is driven by the transduced oncogenes in the same way that cancer cell proliferation in humans is driven by the expression of equivalent oncogenes.
(§4) TRKB selectivity was calculated by dividing a compound's TRKB potency by its primary target potency (e.g., ETV6-TRKB IC50/EML4-ALK v1 IC50). Compound selectivity can be interpreted by binning ratio values: bin A for very high selectivity, ratio≥30-fold; bin B for high selectivity, ratio≥10-fold but<30; bin C for moderate selectivity, ratio≥1 but<10; and bin D for low selectivity, ratio<1. […] (nd=not determined).
A general note: In ATP-based viability assays light output follows the ATP content of the culture.

Assay [2] addresses Ba/F3 EML4-ALK v1 I1171N/D1203N (Homo sapiens (Human), UniProt Q9HC35+Q9UM73, D1203N/I1171N). The assay is described as follows: Ba/F3 cell proliferation assay, EML4-ALK v1 I1171N/D1203N. As to conditions: for IC50: Ba/F3 stable cells, 72 hours, CellTiter-Glo; for ETV6-TRKB / EML4-ALK v1 I1171N/D1203N / Selectivity for Ba/F3 EML4-ALK v1 I1171N-D1203N IC50 over Ba/F3 ETV6-TRKB IC50: TRKB selectivity, ratio of Ba/F3 IC50 values; for Selectivity for Ba/F3 EML4-ALK v1 I1171N-D1203N IC50 over Ba/F3 ETV6-TRKB IC50: Table 6 bins.
From the text: as §1, §2, §3, §4
Additional exemplified compounds were also tested against ALK-INDN and TRKB. The TRKB selectivity was calculated by dividing a compound's TRKB potency by its primary target potency (e.g., ETV6-TRKB IC50/EMIL4-ALK I1171N-D1203N v1 IC50). Compound selectivity can be interpreted by binning ratio values: bin AA for the selectivity with the ratio≥30-fold; bin BB for the selectivity with the ratio≥10-fold but<30; bin CC for the selectivity with the ratio≥5 but<10; bin DD for the selectivity with the ratio≥1 but<5; and bin EE for the selectivity with the ratio<1.

The target of assay [3] is Ba/F3 ETV6-TRKB (Homo sapiens, UniProt Q16620). Kind of assay: Ba/F3 cell proliferation assay, ETV6-TRKB. Particulars: Ba/F3 stable cells, 72 hours, CellTiter-Glo; read-out: ETV6-TRKB IC50.
From the text: as §1, §2, §3

Ba/F3 EML4-ALK v1 I1171N, sequence (Q9UM73 other isoform, or with tags, fused parts or gaps I1171N): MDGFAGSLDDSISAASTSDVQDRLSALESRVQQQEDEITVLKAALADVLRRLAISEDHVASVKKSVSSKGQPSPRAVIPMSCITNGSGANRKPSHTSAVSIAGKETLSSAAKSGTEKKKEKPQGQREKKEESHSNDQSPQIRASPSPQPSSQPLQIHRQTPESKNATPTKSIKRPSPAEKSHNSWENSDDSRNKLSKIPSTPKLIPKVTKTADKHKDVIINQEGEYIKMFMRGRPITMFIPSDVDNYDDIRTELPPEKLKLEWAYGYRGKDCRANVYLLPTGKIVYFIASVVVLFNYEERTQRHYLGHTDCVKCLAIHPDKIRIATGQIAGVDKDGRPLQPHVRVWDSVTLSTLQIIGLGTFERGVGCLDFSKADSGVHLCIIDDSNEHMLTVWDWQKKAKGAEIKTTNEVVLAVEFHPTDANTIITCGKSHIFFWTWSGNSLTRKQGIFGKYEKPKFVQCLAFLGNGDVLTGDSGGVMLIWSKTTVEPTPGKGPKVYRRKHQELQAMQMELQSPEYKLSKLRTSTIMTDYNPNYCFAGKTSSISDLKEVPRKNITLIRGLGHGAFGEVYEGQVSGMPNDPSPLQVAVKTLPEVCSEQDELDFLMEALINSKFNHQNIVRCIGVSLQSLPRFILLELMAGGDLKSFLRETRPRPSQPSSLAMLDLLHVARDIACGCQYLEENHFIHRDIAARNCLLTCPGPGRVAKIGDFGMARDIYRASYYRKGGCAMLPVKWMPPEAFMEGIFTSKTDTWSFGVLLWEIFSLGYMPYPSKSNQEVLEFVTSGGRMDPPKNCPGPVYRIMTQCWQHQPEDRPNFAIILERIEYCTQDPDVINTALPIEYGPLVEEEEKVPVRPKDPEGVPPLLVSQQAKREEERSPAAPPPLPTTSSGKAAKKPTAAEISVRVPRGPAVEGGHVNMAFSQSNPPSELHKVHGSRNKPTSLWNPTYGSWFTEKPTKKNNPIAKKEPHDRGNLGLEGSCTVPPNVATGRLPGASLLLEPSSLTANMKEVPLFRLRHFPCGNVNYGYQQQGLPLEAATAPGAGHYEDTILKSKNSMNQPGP
Ba/F3 ETV6-TRKB, sequence (Q16620 32-822 limits assumed, change not shown): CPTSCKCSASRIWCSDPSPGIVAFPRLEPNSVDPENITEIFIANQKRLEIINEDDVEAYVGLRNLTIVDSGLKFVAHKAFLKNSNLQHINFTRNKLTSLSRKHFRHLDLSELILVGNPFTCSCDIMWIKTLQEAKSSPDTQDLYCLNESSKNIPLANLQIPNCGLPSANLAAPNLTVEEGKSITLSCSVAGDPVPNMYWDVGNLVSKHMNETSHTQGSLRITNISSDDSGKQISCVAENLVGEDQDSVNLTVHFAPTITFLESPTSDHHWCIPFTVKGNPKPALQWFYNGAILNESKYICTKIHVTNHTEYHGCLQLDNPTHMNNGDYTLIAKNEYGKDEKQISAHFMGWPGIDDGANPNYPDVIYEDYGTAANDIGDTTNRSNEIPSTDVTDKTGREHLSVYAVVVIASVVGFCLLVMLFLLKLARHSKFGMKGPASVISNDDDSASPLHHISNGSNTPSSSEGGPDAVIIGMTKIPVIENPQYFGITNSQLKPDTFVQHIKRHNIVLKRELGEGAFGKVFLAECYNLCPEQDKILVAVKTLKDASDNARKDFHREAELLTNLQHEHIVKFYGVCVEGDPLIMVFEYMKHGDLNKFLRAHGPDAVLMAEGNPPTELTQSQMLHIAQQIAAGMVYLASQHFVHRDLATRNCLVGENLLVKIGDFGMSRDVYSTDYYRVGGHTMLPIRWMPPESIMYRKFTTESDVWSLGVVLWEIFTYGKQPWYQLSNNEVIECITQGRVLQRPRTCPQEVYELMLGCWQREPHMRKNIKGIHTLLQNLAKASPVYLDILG
Ba/F3 EML4-ALK v1 I1171N/D1203N, sequence (Q9UM73 other isoform, or with tags, fused parts or gaps I1171N/D1203N): as the sequence (Q9UM73 other isoform, or with tags, fused parts or gaps I1171N) above, with D642N counted along it

In general, IC50 refers to the concentration needed to halve the response being measured. In the case of `C[C@H]1Oc2cc(cnc2N)-c2c(c(C#N)nn2CC2CC2)Cc2cn(C)nc2-c2ccc(F)cc21` [Example 1, (19R)-22-amino-3-(cyclopropylmethyl)-16-fluoro-10,19-dimethyl-20-oxa-3,4,10,11,23-pentaazapentacyclo[19.3.1.0^2,6.0^8,12.0^13,18]pentacosa-1(24),2(6),4,8,11,13,15,17,21(25),22-decaene-5-carbonitrile], in assay [1], the IC50 lay in the range of 50 to 500 nM and the “ETV6-TRKB / EML4-ALK v1 I1171N” value is reported as “B (bin B for high selectivity, ratio≥10-fold but<30)”. For the same molecule, in assay [2], the half-inhibitory concentration (IC50) is over 500 nM and the “ETV6-TRKB / EML4-ALK v1 I1171N/D1203N” value is given as “C (bin C for moderate selectivity, ratio≥1 but<10)”. In assay [3], the half-maximal inhibitory concentration (IC50) is over 500 nM.

In the case of `CCn1ncc2c1-c1cnc(N)c(c1)O[C@H](C)c1cc(F)ccc1-c1ncccc1O2` [Example 14, (R)-3-ethyl-17-fluoro-20-methyl-7,21-dioxa-3,4,12,24-tetraazapentacyclo[20.3.1.0^2,^6.0^8,^13.0^14,^19]hexacosa-1(25),2(6),4,8(13),9,11,14,16,18,22(26),23-undecaen-23-ylamine], the half-inhibitory concentration (IC50) in assay [1] fell in the range of 0.1 to 50 nM; in assay [2], 50 to 500 nM; in assay [3], 0.1 to 50 nM.

For `CCn1ncc2c1-c1cnc(N)c(c1)O[C@H](C)c1cc(F)ccc1-c1nn(C)cc1C2=O` [Example 15, (R)-22-amino-3-ethyl-16-fluoro-10-methyl-19-methyl-20-oxa-3,4,10,11,23-pentaazapentacyclo[19.3.1.0^2,^6.0^8,^12.0^13,^18]pentacosa-1(24),2(6),4,8,11,13,15,17,21(25),22-decaen-7-one], in assay [1], the 50% inhibitory concentration (IC50) was over 500 nM and the “ETV6-TRKB / EML4-ALK v1 I1171N” value is given as “D (bin D for low selectivity, ratio<1)”. In assay [2], the concentration for half-maximal inhibition (IC50) was in the range of 50 to 500 nM; the “ETV6-TRKB / EML4-ALK v1 I1171N/D1203N” value is on record as “C (bin C for moderate selectivity, ratio≥1 but<10)”; the “Selectivity for Ba/F3 EML4-ALK v1 I1171N-D1203N IC50 over Ba/F3 ETV6-TRKB IC50” value (“Selectivity” below) was “DD (bin DD for the selectivity with the ratio≥1 but<5)”. Moreover, in assay [3], the IC50 was in the range of 50 to 500 nM.

Turning to `C[C@H]1Oc2cc(cnc2N)-c2c(nn(C)c2C#N)C(=O)c2cccnc2-c2c(F)cc(F)cc21` [Example 21, (R)-23-amino-15,17-difluoro-4-methyl-20-methyl-7-oxo-21-oxa-4,5,12,24-tetraazapentacyclo[20.3.1.0^2,^6.0^8,^13.0^14,^19]hexacosa-1(25),2,5,8,10,12,14,16,18,22(26),23-undecaene-3-carbonitrile], in assay [1], the IC50 lay in the range of 0.1 to 50 nM and the “ETV6-TRKB / EML4-ALK v1 I1171N” value is “B (bin B for high selectivity, ratio≥10-fold but<30)”. Also, in assay [2], the IC50 fell in the range of 0.1 to 50 nM; the “ETV6-TRKB / EML4-ALK v1 I1171N/D1203N” value was “A (bin A for very high selectivity, ratio≥30-fold)”; the “Selectivity” value is recorded as “AA (bin AA for the selectivity with the ratio≥30-fold)”. The IC50 in assay [3] is 50 to 500 nM.

Turning to `Cc1cc2n(n1)-c1ccc(F)cc1[C@@H](C)Oc1cc(cnc1N)-c1c(c(C(=O)N(C)C)nn1C1CCC1)C2` [Example 67, N,N-dimethyl-(R)-22-amino-3-cyclobutyl-16-fluoro-10,19-dimethyl-20-oxa-3,4,11,12,23-pentaazapentacyclo[19.3.1.0^2,^6.0^8,^12.0^13,^18]pentacosa-1(24),2(6),4,8,10,13,15,17,21(25),22-decaene-5-carboxamide], the half-maximal inhibitory concentration (IC50) lay within 0.1 to 50 nM in assay [2] and 50 to 500 nM in assay [3].

Turning to `Cc1cc2n(n1)-c1c(F)cc(F)cc1[C@@H](C)Oc1cc(cnc1N)-c1c(nn(C)c1C#N)C2=O` [Example 68, (R)-22-amino-14,16-difluoro-4-methyl-10,19-dimethyl-7-oxo-20-oxa-4,5,11,12,23-pentaazapentacyclo[19.3.1.0^2,^6.0^8,^12.0^13,^18]pentacosa-1(24),2,5,8,10,13,15,17,21(25),22-decaene-3-carbonitrile], the IC50 is 50 to 500 nM in assay [2] and over 500 nM in assay [3].

As to `Cc1cc2n(n1)-c1c(F)cc(F)cc1[C@@H](C)Oc1cc(cnc1N)-c1c(C#N)nn(C)c1C2=O` [Example 69, (R)-22-amino-14,16-difluoro-5-methyl-10,19-dimethyl-7-oxo-20-oxa-4,5,11,12,23-pentaazapentacyclo[19.3.1.0^2,^6.0^8,^12.0^13,^18]pentacosa-1(24),2(6),3,8,10,13,15, 17,21(25),22-decaene-3-carbonitrile], in assay [2], the half-inhibitory concentration (IC50) lay in the range of 0.1 to 50 nM and the “ETV6-TRKB / EML4-ALK v1 I1171N/D1203N” value is on record as “B (bin B for high selectivity, ratio≥10-fold but<30)”. The IC50 in assay [3] fell in the range of 50 to 500 nM.

Consider `CC1Oc2cc(cnc2N)-c2c(c(C#N)nn2CC2CC2)Cc2cn(C)nc2-c2c(F)cc(F)cc21` (stereo not shown) [Example 70, 22-amino-3-(cyclopropylmethyl)-14,16-difluoro-10,19-dimethyl-20-oxa-3,4,10,11,23-pentaazapentacyclo[19.3.1.0^2,^6.0^8,^12.0^13,^18]pentacosa-1(24),2(6),4,8,11,13,15,17,21(25),22-decaene-5-carbonitrile], for which, in assay [2], the IC50 is over 500 nM and the “ETV6-TRKB / EML4-ALK v1 I1171N/D1203N” value is “C (bin C for moderate selectivity, ratio≥1 but<10)”. Besides, in assay [3], the 50% inhibitory concentration (IC50) was over 500 nM.

Regarding `Cc1nc2c(s1)C(=O)c1c(c(C#N)nn1C)-c1cnc(N)c(c1)O[C@H](C)c1cc(F)ccc1-2` [Example 74, (R)-22-amino-16-fluoro-5-methyl-10,19-dimethyl-7-oxo-20-oxa-9-thia-4,5,11,23-tetraazapentacyclo[19.3.1.0^2,^6.0^8,^12.0^13,^18]pentacosa-1(24),2(6),3,8(12),10,13,15,17,21(25),22-decaene-3-carbonitrile], in assay [2], the IC50 lay within 50 to 500 nM; the “ETV6-TRKB / EML4-ALK v1 I1171N/D1203N” value is “C (bin C for moderate selectivity, ratio≥1 but<10)”; the “Selectivity” value was “CC (bin CC for the selectivity with the ratio≥5 but<10)”. Moreover, the 50% inhibitory concentration (IC50) in assay [3] is over 500 nM.

On to `C[C@H]1Oc2nc(cnc2N)-c2c(nn(C)c2C#N)C(=O)c2cccnc2-c2ccc(F)cc21` [Example 75, (R)-23-amino-17-fluoro-4-methyl-20-methyl-7-oxo-21-oxa-4,5,12,24,26-pentaazapentacyclo[20.3.1.0^2,^6.0^8,^13.0^14,^19]hexacosa-1(25),2,5,8(13),9,11,14,16,18,22(26),23-undecaene-3-carbonitrile], for which the IC50 in assay [2] and in assay [3] was 0.1 to 50 nM in each case. Besides, the “ETV6-TRKB / EML4-ALK v1 I1171N/D1203N” value in assay [2] is given as “A (bin A for very high selectivity, ratio≥30-fold)”.

`C[C@H]1Oc2cc(cnc2N)-c2c(C#N)nn(C)c2C(O)c2cn(C)nc2-c2c(F)cc(F)cc21` (stereo partly drawn) [Example 79, (19R)-22-amino-14,16-difluoro-7-hydroxy-5,10-dimethyl-19-methyl-20-oxa-4,5,10,11,23-pentaazapentacyclo[19.3.1.0^2,^6.0^8,^12.0^13,^18]pentacosa-1(24),2(6),3,8,11,13,15,17,21(25),22-decaene-3-carbonitrile]: in assay [2], the IC50 lay within 50 to 500 nM and the “ETV6-TRKB / EML4-ALK v1 I1171N/D1203N” value is reported as “C (bin C for moderate selectivity, ratio≥1 but<10)”. Moreover, the 50% inhibitory concentration (IC50) in assay [3] was over 500 nM.

For the molecule “(7S,20R)-23-amino-17-fluoro-7-hydroxy-4-methyl-20-methyl-21-oxa-4,5,12,24-tetraazapentacyclo[20.3.1.0^2,6.0^8,13.0^14,19]hexacosa-1(25),2,5,8(13),9,11,14,16,18,22(26),23-undecaene-3-carbonitrile [Example 78]”, the results for the IC50 in assay [2] and in assay [3] were 50 to 500 nM and over 500 nM, respectively. Moreover, the “ETV6-TRKB / EML4-ALK v1 I1171N/D1203N” value in assay [2] is “B (bin B for high selectivity, ratio≥10-fold but<30)”.

As for “(R)-22-amino-14,16-difluoro-4-methyl-10,19-dimethyl-7-oxo-20-oxa-9-thia-4,5,11,23-tetraazapentacyclo[19.3.1.0^2,6.0^8,12.0^13,18]pentacosa-1(24),2,5,8(12),10,13,15,17,21(25),22-decaene-3-carbonitrile [Example 80]”, the half-inhibitory concentration (IC50) in assay [2] was in the range of 0.1 to 50 nM; in assay [3], 50 to 500 nM. Besides, the “ETV6-TRKB / EML4-ALK v1 I1171N/D1203N” value in assay [2] is recorded as “B (bin B for high selectivity, ratio≥10-fold but<30)”.
